Data taken from publication PMC9822396 (Molecules, 2022).
Like-named read-outs stand apart in the source and are kept apart here.

Columns and labels:
hMAO-A = target: T1, hMAO-A (Homo sapiens, UniProt P21397); assay: biochemical; conditions: for remaining activity at 10 µM: read-out: Residual Activity at 10 µM (%) hMAO-A
T1 construct: purchased Sigma-Aldrich
T1 sequence (P21397 1-527): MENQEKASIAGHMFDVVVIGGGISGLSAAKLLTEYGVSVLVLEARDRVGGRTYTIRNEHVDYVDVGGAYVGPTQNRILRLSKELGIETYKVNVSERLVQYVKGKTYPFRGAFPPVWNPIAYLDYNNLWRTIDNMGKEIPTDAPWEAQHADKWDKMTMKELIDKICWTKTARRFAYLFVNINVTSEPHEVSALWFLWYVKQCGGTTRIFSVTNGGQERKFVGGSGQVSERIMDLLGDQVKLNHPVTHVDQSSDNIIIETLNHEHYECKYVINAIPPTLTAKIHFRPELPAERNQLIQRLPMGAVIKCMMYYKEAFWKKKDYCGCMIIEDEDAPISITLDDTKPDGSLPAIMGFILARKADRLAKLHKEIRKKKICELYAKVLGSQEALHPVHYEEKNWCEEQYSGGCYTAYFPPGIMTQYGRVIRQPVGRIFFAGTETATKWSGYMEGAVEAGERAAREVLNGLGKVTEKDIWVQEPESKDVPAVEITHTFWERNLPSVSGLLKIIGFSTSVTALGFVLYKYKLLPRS
Description: (§1) All other chemicals were of reagent grade.
(§2) hMAO-A and -B activities were determined using a continuous spectrophotometric method, as described previously. […] AChE and BChE activities were assayed as described by Ellman et al., with slight modification. Reactions were performed using AChE and BChE in the 0.5 mL reaction mixtures including 0.5 mM substrate (ATCI and BTCI, respectively) and color reagent (DTNB). […] Reaction rates are expressed as changes in absorbance per min.. Inhibitory activities of AChE and BChE were measured after preincubating enzyme with inhibitors for 15 min before adding DTNB and each substrate.
Inhibitory types and Ki values were determined using Lineweaver-Burk plots and secondary plots of their slopes, respectively.

hMAO-B [1] = target: T2, hMAO-B (Homo sapiens, UniProt P27338); assay: biochemical; format: biochemical; conditions: for SI: hMAO-B selectivity: IC50 of hMAO-A divided by IC50 of hMAO-B; for remaining activity at 10 µM: read-out: Residual Activity at 10 µM (%) hMAO-B
T2 construct: purchased Sigma-Aldrich
T2 sequence (P27338 1-520): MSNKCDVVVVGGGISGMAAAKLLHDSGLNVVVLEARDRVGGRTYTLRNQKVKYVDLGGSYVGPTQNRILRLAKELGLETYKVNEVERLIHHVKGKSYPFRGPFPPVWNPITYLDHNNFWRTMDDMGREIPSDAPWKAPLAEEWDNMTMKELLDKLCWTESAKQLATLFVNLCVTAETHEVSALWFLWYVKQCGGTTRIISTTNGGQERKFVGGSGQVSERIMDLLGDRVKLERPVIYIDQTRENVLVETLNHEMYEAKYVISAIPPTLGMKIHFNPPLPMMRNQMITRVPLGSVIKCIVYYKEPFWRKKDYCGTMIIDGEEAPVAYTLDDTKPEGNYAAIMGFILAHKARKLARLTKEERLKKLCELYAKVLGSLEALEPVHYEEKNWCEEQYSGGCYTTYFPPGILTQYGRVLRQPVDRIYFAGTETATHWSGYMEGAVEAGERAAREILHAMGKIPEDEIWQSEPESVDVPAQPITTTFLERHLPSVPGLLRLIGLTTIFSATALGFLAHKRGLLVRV
Description: as §1
as §2, with “substrate. […]” for “substrate.”

AChE = target: T3, AChE (Electrophorus electricus, UniProt O42275); assay: AChE inhibition (Ellman method); format: biochemical; conditions: read-out: Residual Activity at 10 µM (%) AChE
T3 construct: purchased Sigma-Aldrich
Description: as §1
as §2, with “substrate. […]” for “substrate.”

BChE = target: T4, BChE (Equus caballus, UniProt P81908); assay: BChE inhibition (Ellman method); format: biochemical, equine; conditions: read-out: Residual Activity at 10 µM (%) BChE
T4 construct: BChE from equine serum; purchased Sigma-Aldrich; host or cells: equine serum
Description: as §1
as §2, with “substrate. […]” for “substrate.”

BACE1 = target: T5, BACE1 (Homo sapiens, UniProt P56817); assay: BACE1 inhibition (fluorescent activity detection kit); format: biochemical; conditions: read-out: Residual Activity at 10 µM (%) BACE1
T5 construct: purchased Sigma-Aldrich

hMAO-B [2] = target: T2, hMAO-B; conditions: read-out: hMAO-B inhibitory activity; cited from earlier work

T4 sequence (P81908 whole entry): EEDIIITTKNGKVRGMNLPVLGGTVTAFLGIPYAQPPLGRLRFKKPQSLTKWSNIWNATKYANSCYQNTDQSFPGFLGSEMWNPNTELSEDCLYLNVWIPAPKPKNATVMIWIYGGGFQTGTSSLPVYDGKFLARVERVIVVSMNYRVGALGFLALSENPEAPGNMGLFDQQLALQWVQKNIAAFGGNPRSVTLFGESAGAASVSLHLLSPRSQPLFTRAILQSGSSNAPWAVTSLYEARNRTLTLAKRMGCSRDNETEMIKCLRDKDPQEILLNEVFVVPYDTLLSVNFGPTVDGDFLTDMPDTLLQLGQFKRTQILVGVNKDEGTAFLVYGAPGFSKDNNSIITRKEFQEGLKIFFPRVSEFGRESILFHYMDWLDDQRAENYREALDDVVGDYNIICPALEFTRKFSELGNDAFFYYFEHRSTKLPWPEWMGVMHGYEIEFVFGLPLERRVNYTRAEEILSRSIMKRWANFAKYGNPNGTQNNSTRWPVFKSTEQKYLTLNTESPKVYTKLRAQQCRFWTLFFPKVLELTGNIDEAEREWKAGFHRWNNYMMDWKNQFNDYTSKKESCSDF
T5 sequence (P56817 46-501): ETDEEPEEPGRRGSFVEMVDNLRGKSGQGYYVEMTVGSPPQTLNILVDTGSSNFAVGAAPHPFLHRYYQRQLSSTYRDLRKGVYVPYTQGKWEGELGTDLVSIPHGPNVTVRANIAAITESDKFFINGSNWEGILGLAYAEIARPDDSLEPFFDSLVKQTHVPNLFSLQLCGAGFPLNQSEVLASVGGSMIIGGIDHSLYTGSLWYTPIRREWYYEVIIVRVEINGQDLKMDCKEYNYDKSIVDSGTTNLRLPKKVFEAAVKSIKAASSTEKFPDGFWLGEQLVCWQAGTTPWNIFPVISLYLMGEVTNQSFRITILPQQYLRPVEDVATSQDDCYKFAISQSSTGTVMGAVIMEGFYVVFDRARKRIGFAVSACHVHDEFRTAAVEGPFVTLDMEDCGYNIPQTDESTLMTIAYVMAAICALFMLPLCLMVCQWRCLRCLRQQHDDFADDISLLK
T3 sequence (O42275 24-633): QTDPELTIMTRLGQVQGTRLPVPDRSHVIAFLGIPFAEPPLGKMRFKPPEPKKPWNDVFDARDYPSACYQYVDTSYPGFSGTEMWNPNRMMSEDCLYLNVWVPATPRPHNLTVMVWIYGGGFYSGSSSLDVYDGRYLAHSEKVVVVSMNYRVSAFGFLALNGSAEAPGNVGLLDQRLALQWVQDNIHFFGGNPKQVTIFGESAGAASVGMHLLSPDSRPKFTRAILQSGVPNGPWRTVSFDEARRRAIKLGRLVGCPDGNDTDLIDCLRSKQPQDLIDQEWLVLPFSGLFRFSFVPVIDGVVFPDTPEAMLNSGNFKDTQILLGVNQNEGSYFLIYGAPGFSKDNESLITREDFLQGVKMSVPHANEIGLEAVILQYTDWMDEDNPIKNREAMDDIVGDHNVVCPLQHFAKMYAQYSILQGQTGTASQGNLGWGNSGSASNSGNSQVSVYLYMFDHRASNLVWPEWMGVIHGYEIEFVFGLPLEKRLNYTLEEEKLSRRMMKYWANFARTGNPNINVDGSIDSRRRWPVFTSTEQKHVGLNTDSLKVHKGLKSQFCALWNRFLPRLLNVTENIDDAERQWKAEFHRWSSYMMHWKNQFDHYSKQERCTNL

| SMILES | IC50 (hMAO-A) [µM] | remaining activity at 10 µM (hMAO-A) [%] | IC50 (hMAO-B [1]) [µM] | SI (hMAO-B [1]) | remaining activity at 10 µM (hMAO-B [1]) [%] | remaining activity at 10 µM (AChE) [%] | remaining activity at 10 µM (BChE) [%] | remaining activity at 10 µM (BACE1) [%] | times lower MAO-B inhibition than compound 8 (hMAO-B [1]; ratio of IC50 values versus compound 8) [times] | IC50 (hMAO-B [2]) [µM] |
| --- | --- | --- | --- | --- | --- | --- | --- | --- | --- | --- |
| COc1cc(O)c2c(=O)c(-c3ccc(OC)c(O)c3)coc2c1 [Compound 10, 7,4′-dimethyl-3′-hydroxygenistein] | 8.05 ± 0.1 | 41 ± 1.09 | 3.47 ± 0.055 | 2.32 | 16.9 ± 2.47 | 78.4 ± 3.4 | 98.1 ± 1.98 | 78.86 ± 0.56 | – | – |
| C[C@@H]1O[C@@H](OC[C@H]2O[C@@H](Oc3c(-c4ccc(O)c(O)c4)oc4cc(O)cc(O)c4c3=O)[C@H](O)[C@@H](O)[C@@H]2O)[C@H](O)[C@H](O)[C@H]1O [Compound 1, rutin] | > 40 | 96.8 ± 1.52 | > 40 | – | 75.2 ± 6.76 | 92.4 ± 7.16 | 99.2 ± 0.88 | 82.6 ± 3.77 | – | – |
| COc1ccc(-c2coc3cc(OC)ccc3c2=O)cc1 [Compound 11, 7,4′-dimethoxyisoflavone] | 9.8 ± 0.27 | 49.1 ± 2.25 | 13.7 ± 0.1 | 0.72 | 62 ± 1.09 | 82.7 ± 5.44 | 98.7 ± 0.66 | 91.96 ± 0.59 | – | – |
| COc1ccc2c(c1)OC[C@H]1c3cc4c(cc3O[C@@H]21)OCO4 [Compound 12, 3-methoxy-8,9-methylenedioxypterocarpan] | 12.5 ± 0.33 | 60.3 ± 0.9 | 3.36 ± 0.09 | 3.72 | 13 ± 0.72 | 84.9 ± 0.61 | 93.6 ± 2.11 | 102.4 ± 0.4 | 7.47 | – |
| COc1cc2c(cc1O[C@@H]1O[C@H](CO)[C@@H](O)[C@H](O)[C@H]1O)O[C@H](c1ccccc1)[C@@H](O)C2=O [Compound 2, (2R,3R)-3-hydroxy-7-O-β-D-glucopyranoside-6-methoxyflavanone] | > 40 | 98.3 ± 2.01 | > 40 | – | 69.6 ± 2.46 | 84.8 | 97.5 ± 0.42 | 164 ± 2.96 | – | – |
| COc1cc([C@H]2OC[C@H]3[C@@H]2CO[C@@H]3c2cc(OC)c(O[C@@H]3O[C@H](CO)[C@@H](O)[C@H](O)[C@H]3O)c(OC)c2)cc(OC)c1O [Compound 3, (–)-syringaresinol-4-O-β-D-glucopyranoside] | > 40 | 80 ± 2.02 | > 40 | – | 93.6 ± 3.47 | 95.22 ± 0.08 | 98.9 ± 1.54 | 76.7 ± 4.92 | – | – |
| COc1cc(O)c2c(=O)c(-c3ccc(O)cc3O)coc2c1 [Compound 7, cajanin] | 13.1 ± 0.23 | 56.9 ± 0.92 | 5.18 ± 0.11 | 2.53 | 31.6 ± 4.21 | 70.8 ± 7.2 | 86.9 ± 2.11 | 83.25 ± 0.45 | – | – |
| COc1ccc(-c2coc3cc(O[C@@H]4O[C@H](CO)[C@@H](O)[C@H](O)[C@H]4O)ccc3c2=O)cc1 [Compound 4, ononin] | > 40 | 98.3 ± 1.64 | 28.5 ± 1.55 | >1.40 | 63.5 ± 1.23 | 86.1 ± 1.79 | 96.7 ± 1.68 | 85.9 ± 0.08 | – | – |
| COc1cc([C@H]2OC[C@H]3[C@@H]2CO[C@@H]3c2cc(OC)c(O)c(OC)c2)cc(OC)c1O [Compound 5, (+)-syringaresinol] | > 40 | 80.4 ± 6.57 | 24.3 ± 2.2 | – | 63.2 ± 6.24 | – | – | 81.7 ± 4.01 | – | – |
| COc1cc2c(cc1O)O[C@H](c1ccccc1)[C@@H](O)C2=O [Compound 6, (2R,3R)-3,7-dihydroxy-6-methoxyflavanone] | > 40 | 94.8 ± 1.9 | > 40 | – | 94.6 ± 4.21 | 84.3 ± 1.31 | 91.8 ± 1.35 | 95.72 ± 0.86 | – | – |
| COc1ccc(-c2cc(=O)c3c(O)cc(OC)cc3o2)cc1 [acacetin 7-methyl ether] | – | – | – | – | – | – | – | – | – | 0.2 |
| COc1cc(O)c2c(=O)c(-c3ccc(O)cc3)coc2c1 [Compound 9, prunetin] | 2.49 ± 0.32 | 24.8 ± 1.22 | 5.18 ± 0.059 | 0.48 | 30.8 ± 0.82 | 83.2 ± 4.76 | 93 ± 0.65 | 87.73 ± 0.59 | – | – |
| COc1ccc(-c2coc3cc(O)ccc3c2=O)cc1O [calycosin] | – | – | – | – | – | – | – | – | – | 0.24 |
